Results: patent publication US20240252655A1, “DEUBIQUITINASE-TARGETING CHIMERAS AND RELATED METHODS” (Novartis AG, priority 2021, published 2024)

Key:
CFTR-OTUB1 complex = CFTR-OTUB1 complex (Homo sapiens, UniProt P13569+Q96FW1, DEL508-508); experiment: Native mass spectrometry analysis of ternary complex formation; conditions: native MS; recombinant OTUB1 and DF508-harboring CFTR nucleotide-binding domain; 50 μM compound final
Experimental: FIGS. 15A-15D are images that confirm formation of a ternary complex between CFTR, an exemplary bifunctional compound (Compound 201), and OTUB1 in vitro using recombinant protein and native mass spectrometry (MS)-based approaches. FIGS. 15A-15C depict native mass spectra of CFTR-OTUB1 complex formation in the presence of DMSO (FIG. 15A), the DUB Recruiter Compound 100 alone (FIG. 15B), or the bifunctional compound Compound 201 (FIG. 15C).
Native mass spectrometry experiments were performed on a Thermo QE UHMR equipped with a nano-electrospray ionization source (Advion TriVersa NanoMate). Recombinant OTUB1 was first buffer exchanged into 150 mM ammonium acetate, 100 μM MgCl2, and 100 μM ATP at pH 6.7. 4 μM OTUB1 was then pre-incubated at room temperature for 24 hours with either DMSO, DUB Recruiter Compound 100 (100 μM), or DUBTAc Compound […] (100 μM). After 24 hours, 4 μM CFTR, in the same buffer, was added to the OTUB1 solution, for final concentrations of 2 μM of each protein with either DMSO or 50 μM compound. The solution was then allowed to incubate for 30 minutes prior to analysis on the mass spectrometer. Mass spectra were recorded in positive ion mode with a mass range of 1000-8000 m/z. Each spectrum was then deconvoluted and relevant peaks were integrated to determine % ternary complex formed. All experiments were performed in triplicate.

OTUB1 [1] = biological target: T1, OTUB1 (Homo sapiens, UniProt Q96FW1); experiment: In vitro reconstituted OTUB1 deubiquitination activity assay (monoubiquitin release from di-ubiquitin); assay type: biochemical; parameters: dose or concentration left out as unconfirmed; conditions: in the presence of UBE2D1; OTUB1 pre-incubated with Compound 100 for 1 hr; Western blotting
Experimental: These studies were performed in the presence of OTUB1-stimulating Ubiquitin-conjugating enzyme E2 D1 (UBE2D1), an E2 ubiquitin ligase that engages in a complex with OTUB1 to stimulate OTUB1 activity.
Previously described methods were used to assess DUB Recruiters effects on OTUB1 activity. Recombinant OTUB1 (500 nM) was pre-incubated with DMSO or Compound 100 […] for 1 hr. To initiate assay pre-treated OTUB1 enzyme was mixed 1:1 with di-Ub reaction mix for final concentrations of 250 nM OTUB1, 1.5 μM di-Ub, 12.5 μM UBE2D1 and 5 mM DTT. The appearance of mono-Ub was monitored by Western blotting over time by removing a portion of the reaction mix and adding Laemmli's buffer to terminate the reaction. Blot shown is a representative gel from n=3 biologically independent experiments/group.
Target sequence in this assay (Q96FW1 whole entry): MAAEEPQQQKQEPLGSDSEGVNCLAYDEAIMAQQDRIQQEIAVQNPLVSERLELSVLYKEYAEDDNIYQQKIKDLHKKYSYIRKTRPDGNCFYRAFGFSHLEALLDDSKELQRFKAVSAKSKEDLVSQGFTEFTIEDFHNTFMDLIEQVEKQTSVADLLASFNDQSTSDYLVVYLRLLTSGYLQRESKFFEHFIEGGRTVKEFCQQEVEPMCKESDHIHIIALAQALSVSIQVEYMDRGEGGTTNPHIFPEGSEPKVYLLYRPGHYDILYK
Target sequence in this assay (P51668 whole entry partner): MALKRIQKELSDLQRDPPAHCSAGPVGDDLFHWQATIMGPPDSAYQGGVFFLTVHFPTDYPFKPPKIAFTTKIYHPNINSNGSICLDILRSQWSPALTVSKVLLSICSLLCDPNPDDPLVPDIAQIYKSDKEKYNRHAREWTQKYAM

OTUB1 [2] = biological target: T1, OTUB1; experiment: LC-MS/MS analysis of tryptic peptides from OTUB1 covalently bound to DUB Recruiter; assay type: binding; conditions: tryptic peptides from OTUB1 covalently bound to compound
Target sequence in this assay (Q96FW1 whole entry): as the sequence (Q96FW1 whole entry) above

OTUB1 [3] = biological target: T1, OTUB1; experiment: Gel-based ABPP: competition against IA-rhodamine labeling of OTUB1; assay type: binding; conditions: pre-incubated with OTUB1 30 min at 37° C.; IA-rhodamine 500 nM, 30 min room temperature; in-gel fluorescence; n=3
Experimental: Vehicle (DMSO) or an exemplary DUB Recruiter (Compound 100) were pre-incubated with OTUB1 for 30 min at 37° C. prior to IA-rhodamine labeling (500 nM, 30 min room temperature). OTUB1 was then separated by SDS/PAGE and in-gel fluorescence was assessed. Protein loading is illustrated by silver staining. The gel shown is representative gel of n=3 biologically independent samples/group.
Recombinant OTUB1 ([…]) was pre-treated with either DMSO vehicle or covalent ligand or bifunctional compounds at 37° C. for 30 min in 25 μL of PBS, and subsequently treated with of IA-Rhodamine (Setareh Biotech) at room temperature for 1 h. The reaction was stopped by addition of 4× reducing Laemmli SDS sample loading buffer (Alfa Aesar). After boiling at 95° C. for 5 min, the samples were separated on precast 4-20% Criterion TGX gels (Bio-Rad). Probe-labeled proteins were analyzed by in-gel fluorescence using a ChemiDoc MP (Bio-Rad).
A covalent ligand screen of cysteine-reactive libraries competed against IA-rhodamine labeling of a recombinant exemplary deubiquitinase OTUB1 was carried out to identify small molecule binders to OTUB1 by gel-based activity-based protein profiling (ABPP). […] OTUB1 was then separated by SDS/PAGE and in-gel fluorescence was assessed and quantified.
Target sequence in this assay (Q96FW1 whole entry): as above

Sequence of CFTR-OTUB1 complex (Q96FW1 whole entry, stated change not applied, the tested form may be a part): as the sequence (Q96FW1 whole entry) above
Sequence of CFTR-OTUB1 complex (P13569 with tags, fused parts or gaps DEL508-508 limits assumed): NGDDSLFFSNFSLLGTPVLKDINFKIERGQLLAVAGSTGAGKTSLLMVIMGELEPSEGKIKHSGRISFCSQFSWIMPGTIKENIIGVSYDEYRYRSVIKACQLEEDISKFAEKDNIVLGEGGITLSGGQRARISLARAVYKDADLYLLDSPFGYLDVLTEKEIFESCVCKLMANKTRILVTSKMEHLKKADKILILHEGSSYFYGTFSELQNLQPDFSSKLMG

OTUB1 deubiquitination activity (monoubiquitin release from di-ubiquitin) (OTUB1 [1])	cysteine of OTUB1 targeted (covalent modification site) (OTUB1 [2])	modification of the catalytic C91 of OTUB1 (OTUB1 [2])	inhibition of IA-rhodamine binding of OTUB1 (OTUB1 [3])	SMILES	CFTR-OTUB1 complex formation (CFTR-OTUB1 complex)
–	–	–	–	C=CC(=O)N1CCN(c2ccc(CCC(=O)NCCCCCNC(=O)c3cccc(-c4nc(NC(=O)C5(c6ccc7c(c6)OC(F)(F)O7)CC5)ccc4C)c3)o2)C(=O)C1 [Compound 201, N-(5-(3-(5-(4-acryloyl-2-oxopiperazin-1-yl)furan-2-yl)propanamido)pentyl)-3-(6-(1-(2,2-difluorobenzo[d][1,3]dioxol-5-yl)cyclopropane-1-carboxamido)-3-methylpyridin-2-yl)benzamide]	significant CFTR-OTUB1 complex formation was observed
does not inhibit	selectively targets C23	no detectable modification	dose-responsive inhibition	C=CC(=O)N1CCN(c2ccc(C)o2)C(=O)C1 [Compound 100]	not
